From ChEMBL document CHEMBL5149992, “Discovery, Optimization, and Evaluation of Quinazolinone Derivatives with Novel Linkers as Orally Efficacious Phosphoinositide-3-Kinase Delta Inhibitors for Treatment of Inflammatory Diseases” (J Med Chem, 2021)
pIC50: −log10 of the molar value. One block for each compound: values may come before it. Activity calls are given as the source filed them. The calls are words filed in the database; no cut-off is given here.

Columns and labels:
[1] = target: T1, Phosphatidylinositol 4,5-bisphosphate 3-kinase catalytic subunit delta isoform (Homo sapiens) (UniProt O00329); test: Inhibition of PI3Kdelta (unknown origin) at 0.1 uM using phosphatidylinositol as substrate incubated for 30 mins in presence of ATP by HTRF based assay relative to control
T1 sequence (whole entry): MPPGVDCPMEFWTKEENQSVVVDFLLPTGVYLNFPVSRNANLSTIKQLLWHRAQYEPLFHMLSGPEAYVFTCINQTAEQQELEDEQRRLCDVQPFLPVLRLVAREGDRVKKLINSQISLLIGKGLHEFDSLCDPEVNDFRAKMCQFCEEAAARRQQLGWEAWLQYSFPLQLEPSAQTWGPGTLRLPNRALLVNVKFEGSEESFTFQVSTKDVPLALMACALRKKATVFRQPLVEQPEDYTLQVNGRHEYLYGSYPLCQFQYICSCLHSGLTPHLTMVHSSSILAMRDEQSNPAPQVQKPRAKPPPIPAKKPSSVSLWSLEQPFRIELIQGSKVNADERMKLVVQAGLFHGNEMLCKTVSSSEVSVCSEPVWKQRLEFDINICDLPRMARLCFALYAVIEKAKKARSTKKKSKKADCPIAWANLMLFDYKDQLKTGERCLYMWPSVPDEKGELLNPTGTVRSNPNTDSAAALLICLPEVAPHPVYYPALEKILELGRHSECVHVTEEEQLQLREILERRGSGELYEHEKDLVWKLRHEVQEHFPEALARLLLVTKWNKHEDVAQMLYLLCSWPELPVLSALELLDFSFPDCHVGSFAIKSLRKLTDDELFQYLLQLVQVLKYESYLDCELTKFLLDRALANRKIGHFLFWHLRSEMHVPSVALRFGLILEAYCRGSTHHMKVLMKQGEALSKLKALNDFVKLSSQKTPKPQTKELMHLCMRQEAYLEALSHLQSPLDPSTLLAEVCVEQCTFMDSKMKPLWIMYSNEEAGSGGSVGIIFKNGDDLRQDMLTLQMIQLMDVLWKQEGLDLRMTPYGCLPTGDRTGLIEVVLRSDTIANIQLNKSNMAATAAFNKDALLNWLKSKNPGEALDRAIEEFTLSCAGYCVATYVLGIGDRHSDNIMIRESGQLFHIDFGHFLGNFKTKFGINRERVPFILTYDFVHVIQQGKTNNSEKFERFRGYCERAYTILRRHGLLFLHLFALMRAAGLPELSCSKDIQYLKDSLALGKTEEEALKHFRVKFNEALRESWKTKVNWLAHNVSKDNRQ

[2] = target: T1, Phosphatidylinositol 4,5-bisphosphate 3-kinase catalytic subunit delta isoform (Homo sapiens); test: Inhibition of PI3Kdelta (unknown origin) at 0.01 uM using phosphatidylinositol as substrate incubated for 30 mins in presence of ATP by HTRF based assay relative to control
[3] = target: T2, Phosphatidylinositol 4,5-bisphosphate 3-kinase catalytic subunit delta isoform (Homo sapiens, UniProt O00329); test: Inhibition of PI3Kdelta (unknown origin)
T2 sequence (O00329 whole entry): T1 sequence (whole entry)

[4] = target: Phosphatidylinositol 4,5-bisphosphate 3-kinase catalytic subunit gamma isoform (Homo sapiens, UniProt P48736); test: Inhibition of PI3Kgamma (unknown origin)
Sequence of Phosphatidylinositol 4,5-bisphosphate 3-kinase catalytic subunit gamma isoform (Homo sapiens, UniProt P48736) (P48736 whole entry, canonical isoform): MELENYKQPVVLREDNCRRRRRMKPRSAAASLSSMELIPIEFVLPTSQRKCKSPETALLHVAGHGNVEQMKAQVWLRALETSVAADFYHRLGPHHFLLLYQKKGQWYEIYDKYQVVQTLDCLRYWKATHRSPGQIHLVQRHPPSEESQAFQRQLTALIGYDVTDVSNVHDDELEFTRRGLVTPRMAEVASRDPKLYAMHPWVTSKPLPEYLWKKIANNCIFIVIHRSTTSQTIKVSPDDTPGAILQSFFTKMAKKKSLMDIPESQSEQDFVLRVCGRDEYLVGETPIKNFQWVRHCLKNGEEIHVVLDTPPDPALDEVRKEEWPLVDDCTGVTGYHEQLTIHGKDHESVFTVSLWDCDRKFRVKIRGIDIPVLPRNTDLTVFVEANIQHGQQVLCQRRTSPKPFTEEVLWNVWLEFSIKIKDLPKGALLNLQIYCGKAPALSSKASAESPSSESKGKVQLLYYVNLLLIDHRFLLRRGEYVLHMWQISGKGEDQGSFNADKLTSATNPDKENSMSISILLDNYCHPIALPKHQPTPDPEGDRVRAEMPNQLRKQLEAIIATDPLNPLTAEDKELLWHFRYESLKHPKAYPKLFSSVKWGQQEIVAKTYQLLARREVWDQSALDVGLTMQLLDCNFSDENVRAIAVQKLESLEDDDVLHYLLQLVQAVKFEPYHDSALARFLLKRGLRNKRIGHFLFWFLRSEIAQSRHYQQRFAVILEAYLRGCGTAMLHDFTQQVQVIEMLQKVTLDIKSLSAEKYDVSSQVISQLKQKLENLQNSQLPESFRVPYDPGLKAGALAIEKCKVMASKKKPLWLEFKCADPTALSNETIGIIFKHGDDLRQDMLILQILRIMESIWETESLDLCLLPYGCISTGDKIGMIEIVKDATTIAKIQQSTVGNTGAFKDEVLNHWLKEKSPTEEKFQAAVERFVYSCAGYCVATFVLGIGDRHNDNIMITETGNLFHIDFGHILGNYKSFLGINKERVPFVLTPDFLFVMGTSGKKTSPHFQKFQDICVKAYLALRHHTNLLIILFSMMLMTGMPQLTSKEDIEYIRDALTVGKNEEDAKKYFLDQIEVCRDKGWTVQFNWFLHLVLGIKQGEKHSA

[5] = target: T3, Phosphatidylinositol 4,5-bisphosphate 3-kinase catalytic subunit alpha isoform (Homo sapiens, UniProt P42336); test: Inhibition of PI3Kalpha (unknown origin)
T3 sequence (P42336 whole entry, canonical isoform): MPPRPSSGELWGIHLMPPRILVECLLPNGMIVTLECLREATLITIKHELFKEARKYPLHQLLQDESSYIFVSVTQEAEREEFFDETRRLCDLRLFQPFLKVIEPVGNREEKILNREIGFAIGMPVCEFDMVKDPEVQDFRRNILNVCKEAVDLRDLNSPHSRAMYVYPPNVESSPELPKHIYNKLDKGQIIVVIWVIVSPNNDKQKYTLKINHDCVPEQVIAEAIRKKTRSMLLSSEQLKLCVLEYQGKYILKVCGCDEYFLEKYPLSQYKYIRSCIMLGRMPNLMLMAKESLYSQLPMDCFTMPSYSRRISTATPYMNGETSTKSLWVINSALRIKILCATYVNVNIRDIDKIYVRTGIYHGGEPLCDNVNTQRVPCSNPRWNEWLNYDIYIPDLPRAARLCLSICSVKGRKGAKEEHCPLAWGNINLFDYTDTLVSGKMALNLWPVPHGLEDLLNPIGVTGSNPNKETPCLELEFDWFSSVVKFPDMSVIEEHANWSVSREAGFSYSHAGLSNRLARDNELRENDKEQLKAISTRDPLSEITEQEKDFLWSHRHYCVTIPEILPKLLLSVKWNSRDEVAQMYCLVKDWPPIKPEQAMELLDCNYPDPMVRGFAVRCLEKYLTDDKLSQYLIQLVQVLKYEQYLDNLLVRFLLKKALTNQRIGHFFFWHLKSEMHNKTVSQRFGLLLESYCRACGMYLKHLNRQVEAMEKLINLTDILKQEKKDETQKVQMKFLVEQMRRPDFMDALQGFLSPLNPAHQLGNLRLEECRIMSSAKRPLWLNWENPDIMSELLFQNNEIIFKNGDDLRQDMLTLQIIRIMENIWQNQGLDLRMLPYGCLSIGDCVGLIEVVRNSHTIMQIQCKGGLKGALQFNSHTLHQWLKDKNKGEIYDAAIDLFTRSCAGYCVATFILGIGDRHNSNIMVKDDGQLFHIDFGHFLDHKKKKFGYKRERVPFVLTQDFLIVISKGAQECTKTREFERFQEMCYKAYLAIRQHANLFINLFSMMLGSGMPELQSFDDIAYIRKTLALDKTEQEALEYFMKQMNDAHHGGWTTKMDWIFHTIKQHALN

[6] = target: T4, Phosphatidylinositol 4,5-bisphosphate 3-kinase catalytic subunit beta isoform (Homo sapiens, UniProt P42338); test: Inhibition of PI3Kbeta (unknown origin)
T4 sequence (P42338 whole entry, canonical isoform): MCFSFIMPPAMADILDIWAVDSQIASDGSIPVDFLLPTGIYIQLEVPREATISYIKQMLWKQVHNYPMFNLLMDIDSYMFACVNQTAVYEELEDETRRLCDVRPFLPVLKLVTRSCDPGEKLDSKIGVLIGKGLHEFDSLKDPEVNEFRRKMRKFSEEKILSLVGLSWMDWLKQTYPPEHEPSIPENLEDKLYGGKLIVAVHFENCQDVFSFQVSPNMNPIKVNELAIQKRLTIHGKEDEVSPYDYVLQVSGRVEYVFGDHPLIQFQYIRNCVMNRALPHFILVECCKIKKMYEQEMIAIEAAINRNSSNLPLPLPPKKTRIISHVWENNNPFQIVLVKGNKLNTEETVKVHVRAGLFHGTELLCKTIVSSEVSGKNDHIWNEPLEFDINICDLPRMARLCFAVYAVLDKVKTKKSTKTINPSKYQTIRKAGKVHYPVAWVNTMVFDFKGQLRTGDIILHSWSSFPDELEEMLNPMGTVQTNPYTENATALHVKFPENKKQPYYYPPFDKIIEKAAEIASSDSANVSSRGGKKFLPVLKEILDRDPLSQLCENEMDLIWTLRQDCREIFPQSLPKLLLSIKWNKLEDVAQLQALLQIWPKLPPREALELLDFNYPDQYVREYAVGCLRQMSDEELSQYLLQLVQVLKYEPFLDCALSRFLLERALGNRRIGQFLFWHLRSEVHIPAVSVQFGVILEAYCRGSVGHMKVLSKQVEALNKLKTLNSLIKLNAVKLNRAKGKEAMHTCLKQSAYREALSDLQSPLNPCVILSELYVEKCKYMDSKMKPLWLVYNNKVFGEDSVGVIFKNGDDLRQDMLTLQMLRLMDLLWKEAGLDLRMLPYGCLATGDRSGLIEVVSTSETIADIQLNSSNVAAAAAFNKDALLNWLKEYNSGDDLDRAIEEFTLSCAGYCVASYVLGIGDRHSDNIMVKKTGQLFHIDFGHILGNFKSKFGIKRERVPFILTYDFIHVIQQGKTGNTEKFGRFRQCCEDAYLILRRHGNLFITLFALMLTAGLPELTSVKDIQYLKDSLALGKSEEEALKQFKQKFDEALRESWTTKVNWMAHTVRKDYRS

[7] = Toxicity in mouse at 100 mg/kg, po; format: organism-based; details: in vivo
[8] = human, microsomes, 10 µM
[9] = in vitro; details: human, liver microsomes
[10] = target: T3, Phosphatidylinositol 4,5-bisphosphate 3-kinase catalytic subunit alpha isoform; test: Inhibition of PI3Kalpha in human SK-OV-3 cells assessed as reduction in AKT phosphorylation at S473 residue incubated for 30 mins; format: cell-based
[11] = target: T4, Phosphatidylinositol 4,5-bisphosphate 3-kinase catalytic subunit beta isoform; test: Inhibition of PI3Kbeta in human 786-0 cells assessed as reduction in AKT phosphorylation at S473 residue incubated for 30 mins; format: cell-based
[12] = target: Phosphatidylinositol 4,5-bisphosphate 3-kinase catalytic subunit gamma isoform (Mus musculus, UniProt Q9JHG7); test: Inhibition of PI3Kgamma in c5a-stimulated mouse RAW264.7 cells assessed as reduction in AKT phosphorylation at S473 residue incubated for 30 mins; format: cell-based
Sequence of Phosphatidylinositol 4,5-bisphosphate 3-kinase catalytic subunit gamma isoform (Mus musculus, UniProt Q9JHG7) (Q9JHG7 whole entry, canonical isoform): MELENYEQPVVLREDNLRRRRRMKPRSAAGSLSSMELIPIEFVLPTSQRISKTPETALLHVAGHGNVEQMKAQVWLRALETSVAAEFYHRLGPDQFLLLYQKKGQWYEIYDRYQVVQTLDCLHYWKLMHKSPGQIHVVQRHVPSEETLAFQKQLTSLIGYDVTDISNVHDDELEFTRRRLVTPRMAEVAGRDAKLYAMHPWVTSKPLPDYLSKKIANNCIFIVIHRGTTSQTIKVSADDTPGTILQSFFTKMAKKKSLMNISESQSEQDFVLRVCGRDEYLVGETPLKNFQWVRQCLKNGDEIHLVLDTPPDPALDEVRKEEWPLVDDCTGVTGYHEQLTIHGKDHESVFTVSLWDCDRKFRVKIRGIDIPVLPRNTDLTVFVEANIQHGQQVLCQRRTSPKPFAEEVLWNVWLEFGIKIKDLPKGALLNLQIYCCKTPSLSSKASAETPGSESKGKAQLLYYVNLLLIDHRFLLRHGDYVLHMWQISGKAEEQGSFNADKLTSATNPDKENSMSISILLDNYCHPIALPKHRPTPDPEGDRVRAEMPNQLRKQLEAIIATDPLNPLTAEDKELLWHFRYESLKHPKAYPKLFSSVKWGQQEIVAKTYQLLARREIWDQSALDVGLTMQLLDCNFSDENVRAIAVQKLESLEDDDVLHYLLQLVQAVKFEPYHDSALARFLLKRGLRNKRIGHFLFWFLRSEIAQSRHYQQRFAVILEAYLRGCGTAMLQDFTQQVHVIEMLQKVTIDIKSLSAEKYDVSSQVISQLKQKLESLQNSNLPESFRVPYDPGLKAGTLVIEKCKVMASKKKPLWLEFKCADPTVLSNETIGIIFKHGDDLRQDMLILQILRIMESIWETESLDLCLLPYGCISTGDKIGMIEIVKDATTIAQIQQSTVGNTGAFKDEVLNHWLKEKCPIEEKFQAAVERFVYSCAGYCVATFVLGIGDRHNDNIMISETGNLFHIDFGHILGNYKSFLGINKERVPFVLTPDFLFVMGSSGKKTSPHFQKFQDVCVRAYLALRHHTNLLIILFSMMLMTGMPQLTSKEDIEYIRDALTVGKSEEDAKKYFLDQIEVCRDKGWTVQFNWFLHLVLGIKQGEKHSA

[13] = target: T2, Phosphatidylinositol 4,5-bisphosphate 3-kinase catalytic subunit delta isoform; test: Inhibition of PI3Kdelta in anti-IgM-stimulated human Raji cells assessed as reduction in AKT phosphorylation at S473 residue incubated for 30 mins; format: cell-based
[14] = target: T2, Phosphatidylinositol 4,5-bisphosphate 3-kinase catalytic subunit delta isoform; test: Inhibition of PI3Kdelta in anti-IgM-stimulated human whole blood B cell degranulation incubated for 60 mins by flow cytometry; format: tissue-based
[15] = tested on: H9c2; test: Cytotoxicity against rat H9c2 cells assessed as reduction in cell viability incubated for 72 hrs by CCK-8 assay; format: toxicity, cell-based; details: h9c2, 72 h
[16] = tested on: L929; test: Cytotoxicity against mouse L929 cells assessed as reduction in cell viability incubated for 72 hrs by CCK-8 assay; format: toxicity, cell-based; details: l929, 72 h
[17] = tested on: HEK293; test: Cytotoxicity against HEK293 cells assessed as reduction in cell viability incubated for 72 hrs by CCK-8 assay; format: toxicity, cell-based; details: human, hek293, 72 h
[18] = tested on: L02; test: Cytotoxicity against human L02 cells assessed as reduction in cell viability incubated for 72 hrs by CCK-8 assay; format: toxicity, cell-based; details: l02, 72 h
[19] = Elimination half life in Sprague-Dawley rat at 5 mg/kg, po incubated for 5 to 24 hrs by LC-MS/MS analysis; format: ADME, organism-based; details: in vivo, time 5-24 hrs, read-out: beta t1/2 (converted)
[20] = Elimination half life in Sprague-Dawley rat at 5 mg/kg, iv incubated for 5 to 24 hrs by LC-MS/MS analysis; format: ADME, organism-based; details: in vivo, time 5-24 hrs, read-out: beta t1/2 (converted)
[21] = Volume of distribution at steady state in Sprague-Dawley rat at 5 mg/kg, po incubated for 5 to 24 hrs by LC-MS/MS analysis; format: ADME, organism-based; details: in vivo, time 5-24 hrs
[22] = Volume of distribution at steady state in Sprague-Dawley rat at 5 mg/kg, iv incubated for 5 to 24 hrs by LC-MS/MS analysis; format: ADME, organism-based; details: in vivo, time 5-24 hrs, read-out: Vdss
[23] = Tmax in Sprague-Dawley rat at 5 mg/kg, po incubated for 5 to 24 hrs by LC-MS/MS analysis; format: ADME, organism-based; details: in vivo, time 5-24 hrs
[24] = Tmax in Sprague-Dawley rat at 5 mg/kg, iv incubated for 5 to 24 hrs by LC-MS/MS analysis; format: ADME, organism-based; details: in vivo, time 5-24 hrs
[25] = MRT in Sprague-Dawley rat at 5 mg/kg, po incubated for 5 to 24 hrs by LC-MS/MS analysis; format: ADME, organism-based; details: in vivo, time 5-24 hrs
[26] = MRT in Sprague-Dawley rat at 5 mg/kg, iv incubated for 5 to 24 hrs by LC-MS/MS analysis; format: ADME, organism-based; details: in vivo, time 5-24 hrs
[27] = AUC in Sprague-Dawley rat at 5 mg/kg, po incubated for 5 to 24 hrs by LC-MS/MS analysis; format: ADME, organism-based; design: dose 5 mg/kg, time upper 24 hrs, time lower 5 hrs, route po; details: in vivo
[28] = AUC in Sprague-Dawley rat at 5 mg/kg, iv incubated for 5 to 24 hrs by LC-MS/MS analysis; format: ADME, organism-based; design: time 5-24 hrs, dose 5 mg/kg, route iv; details: in vivo
[29] = Oral bioavailability Sprague-Dawley rat at 5 mg/kg incubated for 5 to 24 hrs by LC-MS/MS analysis; format: ADME, organism-based; details: in vivo, time 5-24 hrs
[30] = tested on: Mus musculus; test: Antiarthritic activity in collagen-induced rheumatoid arthritis po dosed DBA1/J mouse model assessed as reduction in disease severity measured once daily for 24 to 27 days; format: functional, organism-based; details: dose 5-20 mg/kg, time 24-27 day, DDE = dose-dependent effect
[31] = tested on: Mus musculus; test: Antiarthritic activity against collagen-induced arthritis DBA1/J mouse model assessed as paw swelling of forelimb at 5 to 20 mg/kg, po measured on day 27; format: functional, organism-based; details: dose 5-20 mg/kg, time 27.0 day
[32] = tested on: Mus musculus; test: Antiarthritic activity against collagen-induced arthritis DBA1/J mouse model assessed as paw swelling of hindlimb at 5 to 20 mg/kg, po measured on day 27; format: functional, organism-based; details: dose 5-20 mg/kg, time 27.0 day
[33] = tested on: Mus musculus; test: Antiarthritic activity against collagen-induced arthritis DBA1/J mouse model assessed as signs of inflammation at 20 mg/kg, po measured after 24 hrs by H and E staining based analysis; format: functional, organism-based
[34] = tested on: Mus musculus; test: Antiarthritic activity against collagen-induced arthritis DBA1/J mouse model assessed as bone erosion at 20 mg/kg, po measured after 24 hrs by H and E staining based analysis; format: functional, organism-based
[35] = tested on: Mus musculus; test: Antiarthritic activity against collagen-induced arthritis DBA1/J mouse model assessed as destruction of cartilage at 20 mg/kg, po measured after 24 hrs by Safranin-O staining based microscopic analysis; format: functional, organism-based
[36] = tested on: Mus musculus; test: Antiarthritic activity in collagen-induced rheumatoid arthritis DBA1/J mouse model assessed as reduction in disease severity at 20 mg/kg, po qd measured once daily for 24 to 27 days; format: functional, organism-based; details: time 24-27 day
[37] = target: T1, Phosphatidylinositol 4,5-bisphosphate 3-kinase catalytic subunit delta isoform (Homo sapiens); test: Inhibition of PI3Kdelta (unknown origin) at 0.1 uM relative to control

SMILES: N#Cc1c(N)ncnc1N1[C@H](c2nc3cccc(Cl)c3c(=O)n2-c2ccccc2)C[C@@H]2CCCC[C@@H]21
inhibition [1]: 43%
inhibition [2]: 10%
pIC50 [3]: 7.05
pIC50 [4]: < 6.00
pIC50 [5]: < 6.00
pIC50 [6]: < 6.00
Activity [7]: Non-Toxic
CLH [8]: 19.8 mL/min/g
half-life at 60 h, 10 µM [9]: 1.17 h

SMILES: C[C@H]1CC[C@@H](c2nc3cccc(Cl)c3c(=O)n2-c2cccc(F)c2)N1c1ncnc2[nH]cnc12
pIC50 [3]: 7.85
pIC50 [4]: 6.57
pIC50 [5]: 5.35
pIC50 [6]: 6.43
pIC50 [10]: 5.36
pIC50 [11]: 6.03
pIC50 [12]: 6.24
pIC50 [13]: 7.61
pIC50 [14]: 7.00
Activity [15]: Non-Toxic
Activity [16]: Non-Toxic
Activity [17]: Non-Toxic
Activity [18]: Non-Toxic
half-life [19]: 2.06 h
half-life [20]: 2 h
Vdss [21]: 9.1 L/kg
Vd [22]: 7.16 L/kg
Tmax [23]: 4.67 h
Tmax [24]: 4.8 min
MRT [25]: 5.96 h
MRT [26]: 2.53 h
AUC [27]: 4897.74 ng·h/mL
AUC [28]: 2110.52 ng·h/mL
F [29]: 89.9%
Activity [30]: Dde
Activity [31]: Active
Activity [32]: Active
Activity [33]: Active
Activity [34]: Active
Activity [35]: Active
CLH [8]: 5.2 mL/min/g
half-life at 60 h, 10 µM [9]: 4.44 h

More lines, main results first:

inhibition [1]: 60%
inhibition [2]: 15%
pIC50 [3]: 7.48
pIC50 [4]: < 6.00
pIC50 [5]: < 6.00
pIC50 [6]: < 6.00
CLH [8]: 8.2 mL/min/g
half-life at 60 h, 10 µM [9]: 2.82 h
SMILES: N#Cc1c(N)ncnc1N1CC(F)(F)C[C@H]1c1nc2cccc(Cl)c2c(=O)n1-c1ccccc1
Activity [7]: Toxic

pIC50 [12]: 5.89
SMILES: CC[C@H](Nc1ncnc2[nH]cnc12)c1nc2cccc(F)c2c(=O)n1-c1ccccc1 [IDELALISIB]
Activity [36]: Active

inhibition [37]: 5%
SMILES: N#Cc1c(N)ncnc1N1[C@H](c2nc3cccc(Cl)c3c(=O)n2-c2cccc(OC(F)(F)F)c2)C[C@@H]2CCCC[C@@H]21
